Reference: publication PMC8761492 (Life Science Alliance, 2022)
Starred links: 1 amine or outer side, 2 acyl side, 3 side chain; linkers in the order of their positions; H or OH if unused. Positions of bridges follow the written chain, without caps; N, C: chain ends. Non-standard residues stand in square brackets, D forms with d. Residues, ends and D or L forms follow the SMILES beside them. *: point of attachment. X1 = CC[C@H](C)[C@@H](N[*:1])[C@@H](O)CC(=O)O[C@H](C(=O)[C@H](C)C(=O)[*:2])C(C)C; NMeY = CN[C@@H](Cc1ccc(O)cc1)C(=O)O; dNMeL = CN[C@H](CC(C)C)C(=O)O; Pyruvoyl = CC(=O)C(=O)*

How the values were obtained:
COVID-19 = assay: APLICOV-PC: six-point ordinal scale (post hoc); format: in vivo, human
Description: Although not specified in the protocol (so not captured in the CRF), post-hoc analysis was performed to categorize the status of each patient at baseline, on Days 7, 15, 31, and at time of discharge using the following 6-point ordinal scale (Wang et al 2020):
Hospital admission, not requiring supplemental oxygen
Hospital admission, requiring supplemental oxygen
Hospital admission, requiring high-flow nasal cannula or noninvasive mechanical ventilation
Hospital admission, requiring extracorporeal membrane oxygenation or invasive mechanical ventilation
The number and percentage of patients with at least 1-point and at least 2-point improvements from baseline was calculated for Days 7, 15, 31 and date of discharge.

[1] = APLICOV-PC: central analysis of electrocardiograms; conditions: 317 ECGs from 44 patients; no value above

For CC[C@H](C)[C@H]1NC(=O)[C@@H](NC(=O)[C@@H](CC(C)C)N(C)C(=O)[C@@H]2CCCN2C(=O)C(C)=O)[C@@H](C)OC(=O)[C@H](Cc2ccc(OC)cc2)N(C)C(=O)[C@@H]2CCCN2C(=O)[C@H](CC(C)C)NC(=O)[C@@H](C)C(=O)[C@H](C(C)C)OC(=O)C[C@@H]1O [Plitidepsin] (Pyruvoyl-P[dNMeL]T[X1]LP[NMeY](Me); ester 3-C), the “2 Hospital admission, not requiring supplemental oxygen” value (COVID-19; Day 4, 1.5 mg (N=14)) was 28.6%, the “3 Hospital admission, requiring supplemental oxygen” value (“3 Hospital admission” for short) (COVID-19; Day 4, 1.5 mg (N=14)) was 57.1% and the “4 Hospital admission, requiring high-flow nasal cannula or non-invasive mechanical ventilation” value (COVID-19; Day 4, 1.5 mg (N=14)) was 14.3%. The “2 Hospital admission, not requiring supplemental oxygen” value (COVID-19; Day 4, 2 mg (N=15)) was 40%, the “3 Hospital admission” value (COVID-19; Day 4, 2 mg (N=15)) was 60% and the “2 Hospital admission, not requiring supplemental oxygen” value (COVID-19; Day 4, 2.5 mg (N=15)) was 33.3%. The “3 Hospital admission” value (COVID-19; Day 4, 2.5 mg (N=15)) was 66.7%, the “2 Hospital admission, not requiring supplemental oxygen” value (COVID-19; Day 4, Total (N=44)) was 34.1% and the “3 Hospital admission” value (COVID-19; Day 4, Total (N=44)) was 61.4%. The “4 Hospital admission, requiring high-flow nasal cannula or non-invasive mechanical ventilation” value (COVID-19; Day 4, Total (N=44)) was 4.5%, the “1 Discharged (Alive)” value (COVID-19; Day 7, 1.5 mg (N=14)) was 21.4% and the “2 Hospital admission, not requiring supplemental oxygen” value (COVID-19; Day 7, 1.5 mg (N=14)) was 21.4%. For the same compound, the “3 Hospital admission” value (COVID-19; Day 7, 1.5 mg (N=14)) was 35.7%, the “4 Hospital admission, requiring high-flow nasal cannula or non-invasive mechanical ventilation” value (COVID-19; Day 7, 1.5 mg (N=14)) was 21.4% and the “1 Discharged (Alive)” value (COVID-19; Day 7, 2 mg (N=15)) was 13.3%. For the same compound, the “2 Hospital admission, not requiring supplemental oxygen” value (COVID-19; Day 7, 2 mg (N=15)) was 20%, the “3 Hospital admission” value (COVID-19; Day 7, 2 mg (N=15)) was 66.7% and the “1 Discharged (Alive)” value (COVID-19; Day 7, 2.5 mg (N=15)) was 33.3%. The “2 Hospital admission, not requiring supplemental oxygen” value (COVID-19; Day 7, 2.5 mg (N=15)) was 20%, the “3 Hospital admission” value (COVID-19; Day 7, 2.5 mg (N=15)) was 26.7% and the “4 Hospital admission, requiring high-flow nasal cannula or non-invasive mechanical ventilation” value (COVID-19; Day 7, 2.5 mg (N=15)) was 20%. For the same compound, the “1 Discharged (Alive)” value (COVID-19; Day 7, Total (N=44)) was 22.7%, the “2 Hospital admission, not requiring supplemental oxygen” value (COVID-19; Day 7, Total (N=44)) was 20.5% and the “3 Hospital admission” value (COVID-19; Day 7, Total (N=44)) was 43.2%. The “4 Hospital admission, requiring high-flow nasal cannula or non-invasive mechanical ventilation” value (COVID-19; Day 7, Total (N=44)) was 13.6%, the “1 Discharged (Alive)” value (COVID-19; Day 15, 1.5 mg (N=14)) was 78.6% and the “3 Hospital admission” value (COVID-19; Day 15, 1.5 mg (N=14)) was 7.1%. The “4 Hospital admission, requiring high-flow nasal cannula or non-invasive mechanical ventilation” value (COVID-19; Day 15, 1.5 mg (N=14)) was 7.1%, the “5 Hospital admission, requiring extracorporeal membrane oxygenation or invasive mechanical ventilation” value (shortened to “5 Hospital admission”) (COVID-19; Day 15, 1.5 mg (N=14)) was 7.1% and the “1 Discharged (Alive)” value (COVID-19; Day 15, 2 mg (N=15)) was 93.3%. The “5 Hospital admission” value (COVID-19; Day 15, 2 mg (N=15)) was 6.7%, the “1 Discharged (Alive)” value (COVID-19; Day 15, 2.5 mg (N=15)) was 73.3% and the “3 Hospital admission” value (COVID-19; Day 15, 2.5 mg (N=15)) was 6.7%. For the same compound, the “4 Hospital admission, requiring high-flow nasal cannula or non-invasive mechanical ventilation” value (COVID-19; Day 15, 2.5 mg (N=15)) was 20%, the “1 Discharged (Alive)” value (COVID-19; Day 15, Total (N=44)) was 81.8% and the “3 Hospital admission” value (COVID-19; Day 15, Total (N=44)) was 4.5%. For the same compound, the “4 Hospital admission, requiring high-flow nasal cannula or non-invasive mechanical ventilation” value (COVID-19; Day 15, Total (N=44)) was 9.1%, the “5 Hospital admission” value (COVID-19; Day 15, Total (N=44)) was 4.5% and the “1 Discharged (Alive)” value (COVID-19; Day 31, 1.5 mg (N=14)) was 85.7%. The “2 Hospital admission, not requiring supplemental oxygen” value (COVID-19; Day 31, 1.5 mg (N=14)) was 7.1%, the “6 Death” value (COVID-19; Day 31, 1.5 mg (N=14)) was 7.1% and the “1 Discharged (Alive)” value (COVID-19; Day 31, 2 mg (N=15)) was 93.3%. For the same compound, the “4 Hospital admission, requiring high-flow nasal cannula or non-invasive mechanical ventilation” value (COVID-19; Day 31, 2 mg (N=15)) was 6.7%, the “1 Discharged (Alive)” value (COVID-19; Day 31, 2.5 mg (N=15)) was 80% and the “2 Hospital admission, not requiring supplemental oxygen” value (COVID-19; Day 31, 2.5 mg (N=15)) was 6.7%. The “5 Hospital admission” value (COVID-19; Day 31, 2.5 mg (N=15)) was 6.7%, the “6 Death” value (COVID-19; Day 31, 2.5 mg (N=15)) was 6.7% and the “1 Discharged (Alive)” value (COVID-19; Day 31, Total (N=44)) was 86.4%. The “2 Hospital admission, not requiring supplemental oxygen” value (COVID-19; Day 31, Total (N=44)) was 4.5%, the “4 Hospital admission, requiring high-flow nasal cannula or non-invasive mechanical ventilation” value (COVID-19; Day 31, Total (N=44)) was 2.3% and the “5 Hospital admission” value (COVID-19; Day 31, Total (N=44)) was 2.3%. For the same compound, the “6 Death” value (COVID-19; Day 31, Total (N=44)) was 4.5%, the QTcF [1] was no more than 480 ms and the “δ QTcF” value [1] was no more than 60 ms.
